From PMC7893202 (Acta Pharmaceutica Sinica. B, 2020)

Target: T1, estrogen receptor-alpha (ERα) (Homo sapiens, UniProt P03372)
T1 sequence (P03372 311-547 limits assumed): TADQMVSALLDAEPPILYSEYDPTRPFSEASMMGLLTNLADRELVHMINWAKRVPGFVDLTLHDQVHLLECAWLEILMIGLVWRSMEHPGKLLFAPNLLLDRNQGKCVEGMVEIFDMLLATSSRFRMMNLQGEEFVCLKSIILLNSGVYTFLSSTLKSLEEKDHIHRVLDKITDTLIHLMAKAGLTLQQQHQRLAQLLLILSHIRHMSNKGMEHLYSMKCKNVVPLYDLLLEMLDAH
Test: fluorescence titration
Type: binding

Cc1cc(O)cc2oc3cc(O)cc(O)c3c(=O)c12 [compound 1, norlichexanthone]
Kd: 10 nM
